Experiment [1] deals with Acetylcholinesterase (Electrophorus electricus) (UniProt O42275). Description: Reversible inhibition of electric eel AChE using acetylthiocholine chloride as substrate preincubated for 20 mins followed by substrate addition by Lineweaver-burk plot analysis.
Experiment [2] shares this target. The experiment in a line: Mixed inhibition of electric eel AChE using acetylthiocholine chloride as substrate preincubated for 20 mins followed by substrate addition by Lineweaver-burk plot analysis.
For experiment [3], the target named is Acetylcholinesterase (Electrophorus electricus, UniProt O42275).
Sequence of Acetylcholinesterase (O42275 whole entry): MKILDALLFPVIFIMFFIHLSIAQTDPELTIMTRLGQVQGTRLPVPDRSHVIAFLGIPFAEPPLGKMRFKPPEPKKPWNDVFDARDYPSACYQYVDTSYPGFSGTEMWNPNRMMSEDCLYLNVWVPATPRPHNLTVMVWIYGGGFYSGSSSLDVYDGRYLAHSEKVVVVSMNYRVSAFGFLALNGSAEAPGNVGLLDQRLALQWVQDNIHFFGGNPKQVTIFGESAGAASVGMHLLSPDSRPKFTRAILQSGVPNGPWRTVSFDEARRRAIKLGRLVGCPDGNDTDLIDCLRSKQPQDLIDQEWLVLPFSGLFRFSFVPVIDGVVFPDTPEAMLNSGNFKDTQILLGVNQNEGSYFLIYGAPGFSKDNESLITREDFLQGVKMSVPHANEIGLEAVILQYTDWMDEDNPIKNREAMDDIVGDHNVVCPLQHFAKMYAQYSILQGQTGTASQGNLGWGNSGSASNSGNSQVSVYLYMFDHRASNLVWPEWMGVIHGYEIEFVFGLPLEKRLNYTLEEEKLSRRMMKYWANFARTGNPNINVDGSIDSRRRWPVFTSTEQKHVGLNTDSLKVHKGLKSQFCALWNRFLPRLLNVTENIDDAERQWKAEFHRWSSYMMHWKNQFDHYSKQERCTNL
Description: Inhibition of electric eel AChE using acetylthiocholine chloride as substrate preincubated for 20 mins followed by substrate addition by Ellman's method
The target of experiment [4] is Amyloid-beta precursor protein (Homo sapiens, UniProt P05067).
Sequence of Amyloid-beta precursor protein (P05067 whole entry): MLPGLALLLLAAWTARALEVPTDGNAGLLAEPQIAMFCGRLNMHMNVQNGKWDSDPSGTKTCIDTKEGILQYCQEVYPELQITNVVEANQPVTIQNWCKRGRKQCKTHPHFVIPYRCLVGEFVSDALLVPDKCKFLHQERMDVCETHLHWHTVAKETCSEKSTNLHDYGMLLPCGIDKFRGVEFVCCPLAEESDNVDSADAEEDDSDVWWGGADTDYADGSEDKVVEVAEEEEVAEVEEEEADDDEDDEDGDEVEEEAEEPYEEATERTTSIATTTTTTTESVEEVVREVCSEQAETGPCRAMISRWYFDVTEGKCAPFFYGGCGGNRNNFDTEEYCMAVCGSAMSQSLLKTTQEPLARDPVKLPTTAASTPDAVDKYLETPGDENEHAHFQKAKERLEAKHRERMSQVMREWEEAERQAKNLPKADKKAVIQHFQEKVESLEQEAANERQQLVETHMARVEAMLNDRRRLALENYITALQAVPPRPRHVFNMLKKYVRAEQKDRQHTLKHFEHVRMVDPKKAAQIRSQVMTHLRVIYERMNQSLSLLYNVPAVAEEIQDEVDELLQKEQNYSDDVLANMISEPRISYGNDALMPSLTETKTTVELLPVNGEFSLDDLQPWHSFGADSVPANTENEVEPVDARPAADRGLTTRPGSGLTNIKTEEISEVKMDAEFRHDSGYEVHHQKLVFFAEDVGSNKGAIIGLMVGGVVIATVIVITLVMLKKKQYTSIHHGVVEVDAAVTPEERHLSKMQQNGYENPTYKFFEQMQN
Description: Inhibition of self-mediated amyloid beta (1 to 42) (unknown origin) aggregation after 24 hrs by thioflavin T fluorescence assay
For experiment [5], the target named is Cholinesterase (Equus caballus, UniProt P81908).
Sequence of Cholinesterase (P81908 whole entry): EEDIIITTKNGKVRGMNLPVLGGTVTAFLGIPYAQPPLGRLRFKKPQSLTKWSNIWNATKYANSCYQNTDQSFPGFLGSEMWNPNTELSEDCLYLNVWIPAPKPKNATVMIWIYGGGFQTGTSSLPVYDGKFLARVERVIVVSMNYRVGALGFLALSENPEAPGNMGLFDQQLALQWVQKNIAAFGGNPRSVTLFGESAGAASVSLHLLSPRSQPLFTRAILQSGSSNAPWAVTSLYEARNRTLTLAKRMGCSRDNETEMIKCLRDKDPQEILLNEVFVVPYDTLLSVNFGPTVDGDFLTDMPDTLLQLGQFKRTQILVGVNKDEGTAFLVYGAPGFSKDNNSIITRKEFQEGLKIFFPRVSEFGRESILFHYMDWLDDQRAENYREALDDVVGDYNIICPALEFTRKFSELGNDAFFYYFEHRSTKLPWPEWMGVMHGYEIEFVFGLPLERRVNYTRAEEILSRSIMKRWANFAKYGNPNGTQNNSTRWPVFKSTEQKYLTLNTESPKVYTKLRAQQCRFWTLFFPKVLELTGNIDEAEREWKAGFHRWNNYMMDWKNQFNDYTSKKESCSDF
Description: Inhibition of equine serum BuChE using butylthiocholine chloride as substrate preincubated for 20 mins followed by substrate addition by Ellman's method

The term IC50 denotes the point on the concentration scale where inhibition reaches its midpoint. A high value points to weaker potency in that assay.

Structures are written as SMILES. Activity calls are given as the source filed them. The calls are words filed in the database; no cut-off is given here.

Sequence of Acetylcholinesterase (Electrophorus electricus) (O42275 24-633 limits assumed): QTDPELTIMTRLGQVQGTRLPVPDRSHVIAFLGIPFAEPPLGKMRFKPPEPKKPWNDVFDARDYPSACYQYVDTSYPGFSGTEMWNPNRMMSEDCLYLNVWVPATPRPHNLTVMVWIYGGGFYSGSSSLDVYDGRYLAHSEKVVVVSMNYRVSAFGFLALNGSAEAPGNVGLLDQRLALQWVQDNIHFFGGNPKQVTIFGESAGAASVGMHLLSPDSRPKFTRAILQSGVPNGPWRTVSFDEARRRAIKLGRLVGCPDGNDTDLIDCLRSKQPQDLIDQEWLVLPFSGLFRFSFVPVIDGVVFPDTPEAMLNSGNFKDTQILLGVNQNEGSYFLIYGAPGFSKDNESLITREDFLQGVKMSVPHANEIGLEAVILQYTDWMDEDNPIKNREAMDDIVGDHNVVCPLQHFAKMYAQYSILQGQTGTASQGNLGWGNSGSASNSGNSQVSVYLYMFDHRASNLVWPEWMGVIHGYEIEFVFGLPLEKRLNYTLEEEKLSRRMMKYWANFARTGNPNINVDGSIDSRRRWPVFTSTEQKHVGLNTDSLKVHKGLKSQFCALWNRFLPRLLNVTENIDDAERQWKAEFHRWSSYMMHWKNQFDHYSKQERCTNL

On to `COc1ccc(CC(=O)OCC(=O)Nc2c3c(nc4ccccc24)CCCC3)c(OC)c1OC`, for which the inhibition entry in experiment [1] and in experiment [2] was “Active” in each case. For the same compound, the IC50 was 0.00563 µM in experiment [3], 0.0518 µM in experiment [4] and 0.364 µM in experiment [5].
Take `COc1ccc(C(=O)OCC(=O)Nc2c3c(nc4ccccc24)CCCC3)c(OC)c1OC`: the IC50 in experiment [3] worked out at 0.0155 µM; in experiment [4], 0.0655 µM; in experiment [5] it was 0.255 µM.
The corresponding values for `O=C(COC(=O)c1ccc(O)c(O)c1)Nc1c2c(nc3ccccc13)CCCC2` are 0.133 µM, 0.0174 µM and 0.344 µM.
As for `COc1cc(C(=O)OCC(=O)Nc2c3c(nc4ccccc24)CCCC3)cc(OC)c1OC`, the IC50 in experiment [3] worked out at 0.00846 µM; in experiment [4], 0.0307 µM; in experiment [5], 0.329 µM.
On the same counts, the results for `COc1ccc(CC(=O)OCC(=O)Nc2c3c(nc4ccccc24)CCCC3)cc1OC` are 0.0651 µM, 0.0225 µM and 0.554 µM.
Regarding `O=C(COC(=O)Cc1ccc(O)cc1)Nc1c2c(nc3ccccc13)CCCC2`, the IC50 in experiment [3] came out at 0.074 µM; in experiment [4], 0.0453 µM; in experiment [5], 0.239 µM.
The corresponding values for `COc1ccc(/C=C/C(=O)OCC(=O)Nc2c3c(nc4ccccc24)CCCC3)cc1OC` are 0.0162 µM, 0.0491 µM and 0.159 µM.
Consider `O=C(COC(=O)Cc1ccc(Cl)cc1)Nc1c2c(nc3ccccc13)CCCC2`, for which the values for the IC50 in experiment [3], in experiment [4] and in experiment [5] were 0.183 µM, 0.0775 µM and 0.218 µM, respectively.
Consider `O=C(COC(=O)Cc1c[nH]c2ccccc12)Nc1c2c(nc3ccccc13)CCCC2`, for which the IC50 in experiment [3] amounted to 0.00813 µM; in experiment [4] it was 0.039 µM; in experiment [5], 0.292 µM.
For `COc1cc(/C=C/C(=O)OCC(=O)Nc2c3c(nc4ccccc24)CCCC3)cc(OC)c1OC`, the IC50 in experiment [3] was found to be 0.0169 µM; in experiment [4] it was 0.0459 µM; in experiment [5], 0.299 µM.
With `O=C(COC(=O)/C=C/c1ccc(Cl)cc1)Nc1c2c(nc3ccccc13)CCCC2`, the IC50 in experiment [3] is 0.213 µM; in experiment [4], 0.0518 µM; in experiment [5], 0.542 µM.
As for `COc1cc(OC)cc(C(=O)OCC(=O)Nc2c3c(nc4ccccc24)CCCC3)c1`, the figures for the IC50 in experiment [3], in experiment [4] and in experiment [5] were 0.0157 µM, 0.0559 µM and 0.224 µM, respectively.
The corresponding values for `COc1ccc(/C=C/C(=O)OCC(=O)Nc2c3c(nc4ccccc24)CCCC3)cc1O` are 0.0749 µM, 0.0461 µM and 0.355 µM.
Take `COc1cc(C(=O)OCC(=O)Nc2c3c(nc4ccccc24)CCCC3)ccc1O`: the IC50 in experiment [3] stood at 0.0701 µM; in experiment [4], 0.0374 µM; in experiment [5] it was 0.319 µM.
On to `COc1ccc(CC(=O)OCC(=O)Nc2c3c(nc4ccccc24)CCCC3)cc1`, for which the values for the IC50 in experiment [3], in experiment [4] and in experiment [5] were 0.0253 µM, 0.0713 µM and 0.319 µM, respectively.

These data come from ChEMBL document CHEMBL3797034, “Design, synthesis and evaluation of novel tacrine-multialkoxybenzene hybrids as multi-targeted compounds against Alzheimer's disease” (Eur J Med Chem, 2016).
